Experimental findings from ChEMBL document CHEMBL4364262 (J Med Chem, 2019) are described below.

Where a SMILES comes first, the peptide text is derived from it. Bridges are numbered along the chain shown (N, C = ends). [ ]: non-standard residue; d: D form. Nle(6-COOH) = N[C@@H](CCCCC(=O)O)C(=O)O; Nle = CCCC[C@H](N)C(=O)O

Type in all cases: cell-based
Series [1] is described as follows: Antagonist activity at rat alpha6alpha3beta4 nAChR expressed in Xenopus laevis oocytes assessed as inhibition of Ach-induced response at -70 mV holding potential by two electrode voltage-clamp assay.
Series [2] has as its target nicotinic acetylcholine receptor alpha6/alpha3/beta2/beta3 (Rattus norvegicus, UniProt P04757+P12390+P12391+P43143). In words: Antagonist activity at rat alpha6alpha3beta2beta3 nAChR expressed in Xenopus laevis oocytes assessed as Ach-induced current amplitude at 10 nM at -70 mV holding potential by two electrode voltage-clamp assay relative to control.
Series [3] concerns the target T1, Neuronal acetylcholine receptor; alpha3/beta2 (Rattus norvegicus) (UniProt P04757+P12390). In words: Antagonist activity at rat alpha3beta2 nACHR expressed in Xenopus laevis oocytes assessed as Ach-induced current amplitude at 100 nM at -70 mV holding potential by two electrode voltage-clamp assay relative to control. Further details: scale not given: the % may be the effect or the level left.

The target of series [4] is T1, Neuronal acetylcholine receptor; alpha3/beta2 (Rattus norvegicus). As to the kind of experiment: Antagonist activity at rat alpha3beta2 nACHR expressed in Xenopus laevis oocytes assessed as Ach-induced current amplitude at 10 nM at -70 mV holding potential by two electrode voltage-clamp assay relative to control.

Sequence of nicotinic acetylcholine receptor alpha6/alpha3/beta2/beta3 (P04757 whole entry): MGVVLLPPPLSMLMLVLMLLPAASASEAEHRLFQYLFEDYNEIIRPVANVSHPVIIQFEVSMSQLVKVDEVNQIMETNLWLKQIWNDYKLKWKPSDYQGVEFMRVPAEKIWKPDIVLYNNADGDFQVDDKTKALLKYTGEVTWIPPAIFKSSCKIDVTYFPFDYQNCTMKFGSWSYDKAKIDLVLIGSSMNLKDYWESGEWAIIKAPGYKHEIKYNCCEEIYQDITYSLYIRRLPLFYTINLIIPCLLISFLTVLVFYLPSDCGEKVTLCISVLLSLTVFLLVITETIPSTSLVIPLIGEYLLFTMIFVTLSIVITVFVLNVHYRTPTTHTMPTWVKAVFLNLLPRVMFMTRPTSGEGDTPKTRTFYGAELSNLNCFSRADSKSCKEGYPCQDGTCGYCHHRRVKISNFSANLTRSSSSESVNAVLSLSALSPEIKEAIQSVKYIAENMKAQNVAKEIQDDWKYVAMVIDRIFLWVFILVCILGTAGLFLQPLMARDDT
Sequence of nicotinic acetylcholine receptor alpha6/alpha3/beta2/beta3 (P12390 whole entry): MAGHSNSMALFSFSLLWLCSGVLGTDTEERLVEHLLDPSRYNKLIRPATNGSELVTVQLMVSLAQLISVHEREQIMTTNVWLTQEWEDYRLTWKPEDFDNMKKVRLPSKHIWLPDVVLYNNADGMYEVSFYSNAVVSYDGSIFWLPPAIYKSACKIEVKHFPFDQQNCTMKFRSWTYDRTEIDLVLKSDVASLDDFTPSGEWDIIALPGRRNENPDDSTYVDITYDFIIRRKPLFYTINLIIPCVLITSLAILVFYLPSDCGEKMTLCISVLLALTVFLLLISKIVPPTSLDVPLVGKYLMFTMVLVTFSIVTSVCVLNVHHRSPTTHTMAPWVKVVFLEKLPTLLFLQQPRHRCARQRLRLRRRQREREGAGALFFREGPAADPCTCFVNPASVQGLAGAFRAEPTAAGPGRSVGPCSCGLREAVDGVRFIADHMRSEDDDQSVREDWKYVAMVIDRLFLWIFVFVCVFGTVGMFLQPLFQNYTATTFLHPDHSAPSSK
Sequence of nicotinic acetylcholine receptor alpha6/alpha3/beta2/beta3 (P12391 whole entry): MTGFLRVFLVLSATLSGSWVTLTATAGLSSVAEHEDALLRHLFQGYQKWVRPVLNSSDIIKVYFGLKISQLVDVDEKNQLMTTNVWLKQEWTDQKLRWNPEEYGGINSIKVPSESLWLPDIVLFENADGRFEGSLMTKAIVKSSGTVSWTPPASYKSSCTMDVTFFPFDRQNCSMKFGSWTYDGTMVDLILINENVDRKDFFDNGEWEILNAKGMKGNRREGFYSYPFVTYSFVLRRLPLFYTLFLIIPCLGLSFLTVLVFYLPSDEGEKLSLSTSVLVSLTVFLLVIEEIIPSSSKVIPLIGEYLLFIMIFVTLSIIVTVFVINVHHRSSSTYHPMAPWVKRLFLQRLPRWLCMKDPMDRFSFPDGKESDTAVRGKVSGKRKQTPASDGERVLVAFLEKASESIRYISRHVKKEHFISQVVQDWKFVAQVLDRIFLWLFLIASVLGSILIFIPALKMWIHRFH
Sequence of nicotinic acetylcholine receptor alpha6/alpha3/beta2/beta3 (P43143 whole entry): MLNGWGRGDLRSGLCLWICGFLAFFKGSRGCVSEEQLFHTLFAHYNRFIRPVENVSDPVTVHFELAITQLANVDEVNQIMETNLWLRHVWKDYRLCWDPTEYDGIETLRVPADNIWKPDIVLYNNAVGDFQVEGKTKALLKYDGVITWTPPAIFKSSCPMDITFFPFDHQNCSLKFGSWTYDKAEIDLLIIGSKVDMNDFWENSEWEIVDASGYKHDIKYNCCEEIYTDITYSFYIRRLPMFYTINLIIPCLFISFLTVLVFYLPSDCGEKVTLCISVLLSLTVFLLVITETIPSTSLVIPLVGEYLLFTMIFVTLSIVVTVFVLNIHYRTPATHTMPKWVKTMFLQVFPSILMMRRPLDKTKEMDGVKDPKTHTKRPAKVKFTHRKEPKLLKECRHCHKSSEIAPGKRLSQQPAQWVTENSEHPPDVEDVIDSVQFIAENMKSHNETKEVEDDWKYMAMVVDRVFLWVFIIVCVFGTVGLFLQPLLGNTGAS

Take `CC[C@H](C)[C@@H]1NC(=O)[C@H](Cc2cnc[nH]2)NC(=O)[C@@H]2CSSC[C@H](NC(=O)CN)C(=O)N[C@@H](CSSC[C@@H](C(N)=O)NC(=O)[C@H](CC(C)C)NC(=O)[C@H](CCC(=O)O)NC(=O)[C@@H]3CCCN3C(=O)[C@H](Cc3cnc[nH]3)NC(=O)[C@H](CCCCC(=O)O)NC1=O)C(=O)N[C@@H](CO)C(=O)N[C@@H](Cc1cnc[nH]1)C(=O)N1CCC[C@H]1C(=O)N[C@@H](C)C(=O)N2` (H-GCCSHPACHI[Nle(6-COOH)]HPELC-NH2; disulfide 2-8, 3-16): the IC50 in series [1] turned out to be 43.1 nM.

`CCCC[C@@H]1NC(=O)[C@H](Cc2cnc[nH]2)NC(=O)[C@@H]2CSSC[C@H](NC(=O)CN)C(=O)N[C@@H](CSSC[C@@H](C(N)=O)NC(=O)[C@H]([C@@H](C)CC)NC(=O)[C@H](CCC(=O)O)NC(=O)[C@@H]3CCCN3C(=O)[C@H](Cc3cnc[nH]3)NC(=O)[C@H](CCCCC(=O)O)NC1=O)C(=O)N[C@@H](CO)C(=O)N[C@@H](Cc1cnc[nH]1)C(=O)N1CCC[C@H]1C(=O)N[C@@H](C)C(=O)N2` (H-GCCSHPACH[Nle][Nle(6-COOH)]HPEIC-NH2; disulfide 2-8, 3-16): the IC50 in series [1] came to 205 nM. In addition, the inhibition at 0.01 µM in series [2] came out at 90%. Besides, the Activity in series [3] came to 2%. For the same molecule, in series [4], the inhibition is 8%.

As to `CC[C@H](C)[C@@H]1NC(=O)[C@H](CCC(=O)O)NC(=O)[C@@H]2CCCN2C(=O)[C@H](Cc2cnc[nH]2)NC(=O)[C@H](CCCCC(=O)O)NC(=O)[C@H]([C@@H](C)CC)NC(=O)[C@H](Cc2cnc[nH]2)NC(=O)[C@@H]2CSSC[C@H](NC(=O)CN)C(=O)N[C@@H](CSSC[C@@H](C(N)=O)NC1=O)C(=O)N[C@@H](CO)C(=O)N[C@@H](Cc1cnc[nH]1)C(=O)N1CCC[C@H]1C(=O)N[C@@H](C)C(=O)N2` (H-GCCSHPACHI[Nle(6-COOH)]HPEIC-NH2; disulfide 2-8, 3-16), the IC50 in series [1] was 77.3 nM.

Take `CCCC[C@@H]1NC(=O)[C@H](Cc2cnc[nH]2)NC(=O)[C@@H]2CSSC[C@H](NC(=O)CN)C(=O)N[C@@H](CSSC[C@@H](C(N)=O)NC(=O)[C@H](CC(C)C)NC(=O)[C@H](CCC(=O)O)NC(=O)[C@@H]3CCCN3C(=O)[C@H](Cc3cnc[nH]3)NC(=O)[C@H](CCCCC(=O)O)NC1=O)C(=O)N[C@@H](CO)C(=O)N[C@@H](Cc1cnc[nH]1)C(=O)N1CCC[C@H]1C(=O)N[C@@H](C)C(=O)N2` (H-GCCSHPACH[Nle][Nle(6-COOH)]HPELC-NH2; disulfide 2-8, 3-16): in series [1], the IC50 came out at 120 nM.
